Test results reported in patent US20100260674A1, “QUINAZOLINE DERIVATIVES AND METHODS OF TREATMENT” (Concert Pharmaceuticals, Inc., priority 2006, published 2010).
Where a name gives a salt, the structure may show the parent alone.

Assay: Metabolic stability in pooled human liver microsomes
Conditions: for half-life at 1 μM: human, microsomes, pH 7.4
Description: The metabolic stability of compounds of the invention was tested using pooled liver microsomal incubations. Full scan LC-MS analysis was then performed to detect major metabolites. Samples of the test compounds, exposed to pooled human liver microsomes, were analyzed using HPLC-MS (or MS/MS) detection. For determining metabolic stability, multiple reaction monitoring (MRM) was used to measure the disappearance of the test compounds. Q1 full scans were used to detect the major metabolites.
Experimental Procedures. Human liver microsomes (“HLM”; 20 mg/mL) are obtained from Xenotech, LLC (Lenexa, Kans.). β-nicotinamide adenine dinucleotide phosphate, reduced form (NADPH), magnesium chloride (MgCl2), and dimethyl sulfoxide (DMSO) are purchased from Sigma-Aldrich.
Stock solutions of test compounds (7.5 mM) were prepared in DMSO. […] The 20 mg/mL human liver microsomes were diluted to 0.625 mg/mL in 0.1 M potassium phosphate buffer, pH 7.4, containing 3 mM MgCl2. The diluted microsomes (375 μL) were added to wells of a 96-well deep-well polypropylene plate in triplicate. […] Reactions were initiated by addition of 125 μL of pre-warmed NADPH solution (8 mM NADPH in 0.1M potassium phosphate buffer, pH 7.4, containing 3 mM MgCl2). […] The reaction mixtures were incubated at 37° C., and 50 μL aliquots were removed at 0, 5, 10, 20, and 30 minutes and added to shallow-well 96-well plates which contained 50 μL of ice-cold ACN with internal standard to stop the reactions. The plates were stored at 4° C. for 20 minutes after which 100 μL of water was added to the wells of the plate before centrifugation to pellet precipitated proteins. Supernatants were transferred to another 96-well plate and analyzed for amounts of parent remaining by LC-MS/MS using an Applied Bio-systems API 4000 mass spectrometer.
The in vitro t1/2s for test compounds were calculated from the slopes of the linear regression of % parent remaining (ln) vs incubation time relationship. in vitro t1/2=0.693/k, where k=−[slope of linear regression of % parent remaining(ln) vs incubation time]. Data analysis was performed using Microsoft Excel Software.

For [2H]C([2H])([2H])OCCOc1cc2ncnc(Nc3cccc(C#C)c3)c2cc1OCCOC([2H])([2H])[2H] [Compound 105, N-(3-Ethynylphenyl)-6,7-bis(2-(methoxy-d3)ethoxy)quinazolin-4-amine hydrochloride], the half-life at 1 μM was 62.3 min.
For [2H]C([2H])(COc1cc2ncnc(Nc3cccc(C#C)c3)c2cc1OCC([2H])([2H])OC)OC [Compound 106, N-(3-ethynylphenyl)-6,7-bis(2-methoxyethoxy)quinazolin-4-amine], the half-life at 1 μM was 43.8 min.
For [2H]C([2H])([2H])OC([2H])([2H])COc1cc2ncnc(Nc3cccc(C#C)c3)c2cc1OCC([2H])([2H])OC([2H])([2H])[2H] [Compound 109, N-(3-(Ethynyl-d1)phenyl)-6,7-bis(2-(methoxy-d3)-2,2-d2-ethoxy) quinazolin-4-amine], the “longer t1/2 compared to erlotinib” value (0.5 mg/mL HLM) was 44% and the half-life at 1 μM was 83.5 min.
With [2H]C#Cc1cccc(Nc2ncnc3cc(OCCOC)c(OCCOC)cc23)c1 [Compound 110, N-(3-(Ethynyl-d1)phenyl)-6,7-bis(2-methoxyethoxy) quinazolin-4-amine hydrochloride] the half-life at 1 μM was 42.7 min.
C#Cc1cccc(Nc2ncnc3cc(OCCOC)c(OCCOC)cc23)c1 [erlotinib, N-(3-ethynylphenyl)-6,7-bis(2-methoxyethoxy)quinazolin-4-amine, reference compound] gave a half-life at 1 μM of 57.8 min.
